These results are taken from patent publication US7960393B2, “Pyrimidine derivatives useful for the treatment of diseases mediated by CRTH2” (Actimis Pharmaceuticals, Inc., priority 2002, dated 2011).

pIC50: −log10 of the molar value. A value given as a limit tells only on which side of the number the result lay.

The target in this test is T1, human CRTH2 (Homo sapiens, UniProt Q9Y5Y4).
T1 construct: expressed in transfected cells; host or cells: L1.2 cells, pEAK expression vector, puromycin-selected
T1 sequence (Q9Y5Y4 1-395): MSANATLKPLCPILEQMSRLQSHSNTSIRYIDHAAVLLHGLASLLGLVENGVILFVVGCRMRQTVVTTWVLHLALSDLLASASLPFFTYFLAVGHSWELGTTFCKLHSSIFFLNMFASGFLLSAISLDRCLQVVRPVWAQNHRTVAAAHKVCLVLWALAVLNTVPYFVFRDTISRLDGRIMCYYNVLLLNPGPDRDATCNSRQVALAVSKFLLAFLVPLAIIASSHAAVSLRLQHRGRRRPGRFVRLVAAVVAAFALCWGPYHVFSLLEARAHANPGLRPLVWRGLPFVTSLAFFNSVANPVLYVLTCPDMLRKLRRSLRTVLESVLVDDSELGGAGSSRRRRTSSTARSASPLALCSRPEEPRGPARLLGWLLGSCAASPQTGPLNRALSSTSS
The test can be described thus: Measurement of Ca2+ mobilization in the human CRTH2-transfected L1.2 cell line (Assay 1). Format: cell-based. To be noted: PGD2-induced Ca2+ mobilization in CRTH2-transfected L1.2 cells; compounds as yielded by solid phase synthesis, purity about 40 to 90%; read-out: Activity class. As to the method: Human CRTH2 cDNA was amplified from human eosinophil cDNA with gene specific primers containing restriction sites for cloning into pEAK vector (Edge Bio Systems). The human CRTH2 cDNA was cloned into the mammalian expression vector pEAK. This expression plasmid (40 μg) was transfected into L1.2 cells, at a cell density of 1×10^7 cells/500 μl, by using electroporation apparatus (Gene Pulser II, BioRad) at 250V/1,000 μF. One day after the transfection, puromycin (1 μg/ml, Sigma) was added into the cell culture plates. Two weeks after the transfection, grown cells were picked up for further growth.
[Measurement of Ca^2+ Mobilization in the Human CRTH2-Transfected L1.2 Cell Line] (Assay 1)
Ca^2+ loading buffer was prepared by mixing 5 μl of Fluo-3AM (2 mM in DMSO, final 1 μM, Molecular Probes) and 10 μl of pluronic F-127 (Molecular Probes) and diluting the resulting mixture in 10 ml of Ca^2+ assay buffer (20 mM HEPES pH 7.6, 0.1% BSA, 1 mM probenecid, Hanks' solution). The CRTH2 transfected cells which were prepared in Example 1 were washed with PBS, resuspended in Ca^2+ loading buffer at 1×10^7 cells/ml, and incubated for 60 min at room temperature. After incubation, cells were washed and resuspended in Ca^2+ assay buffer, then dispensed into transparent-bottom 96-well plates (#3631, Costar) at 2×10^5 cells/well. Cells were incubated with various concentrations of test compound for 5 minutes at room temperature. The emitted 480 nm fluorescence was measured on FDSS6000, a Ca^2+-measurement apparatus (Hamamatsu Photonics, Hamamatsu, Japan).
Assay results in Assay 1 are shown in Examples and tables of the Examples below. The data corresponds to the compounds as yielded by solid phase synthesis and thus to levels of purity of about 40 to 90%. For practical reasons, the compounds are grouped in four classes of activity as follows: IC50=A(< or =)10 nM<B(< or =)100 nM<C(< or =)500 nM<D
For orientation: A change in cytosolic calcium serves as a functional read-out for many receptors and channels.

Turning to `CN(C)c1nc(Cc2ccc(NC(=O)c3ccc(Br)cc3)cc2)ncc1CC(=O)O` [Example 2-16], the pIC50 was over 8.00.

Regarding `O=C(O)Cc1c(Cl)nc(Cc2ccc(NC(=O)c3ccc4ccccc4c3)cc2)nc1N1CC=CC1` [Example 3-10], the pIC50 was over 8.00.

Regarding `Cc1nc(Cc2ccc(NC(=O)c3ccc(Cl)c(Cl)c3)cc2)nc(N2CCCC2)c1CC(=O)O` [Example 8-2], the pIC50 was over 8.00.

Consider `CN(CC(=O)NC1CCCC1)c1nc(Cc2ccc(NCC3CCCCC3)cc2)nc(Cl)c1CC(=O)O` [Example 5-1, {4-Chloro-2-{4-[(cyclohexylmethyl)amino]benzyl}-6-[[2-(cyclopentylamino)-2-oxoethyl](methyl)amino]pyrimidin-5-yl}acetic add], for which the pIC50 was under 6.30.

Turning to `CSc1ccc(C(=O)Nc2ccc(Cc3nc(Cl)c(CC(=O)O)c(N4CCCC4)n3)cc2)cc1` [Example 3-15], the pIC50 was over 8.00.

Regarding `CN(CC(=O)NC1CCCC1)c1nc(Cc2ccc(NC(=O)Nc3ccccc3)cc2)nc(Cl)c1CC(=O)O` [Example 4-1, {2-{4-[(Anilinocarbonyl)amino]benzyl}-4-chloro-6-[[2-(cyclopentylamino)-2-oxoethyl](methyl)amino]pyrimidin-5-yl}acetatic acid], the pIC50 was 7.00 to 8.00.

In the case of `CN(C)c1nc(Cc2ccc(NC(=O)c3ccc(S(N)(=O)=O)cc3)cc2)nc(Cl)c1CC(=O)O` [Example 1-40], the pIC50 is 6.30 to 7.00.

In the case of `CN(C)c1nc(Cc2ccc(NC(=O)OCc3ccc([N+](=O)[O-])cc3)cc2)ncc1CC(=O)O` [Example 9-4], the pIC50 is 7.00 to 8.00.

Regarding `CN(C)c1nc(Cc2ccc(NC(=O)/C=C/c3ccc(C(F)(F)F)cc3)cc2)ncc1CC(=O)O` [Example 2-17], the pIC50 is over 8.00.

As for `Cc1nc(Cc2ccc(NC(=O)c3ccc4ccccc4c3)cc2)nc(N2CCCC2)c1CC(=O)O` [Example 8-1, {4-Methyl-2-[4-(2-naphthoylamino)benzyl]-6-pyrrolidin-1-ylpyrimidin-5-yl}acetic acid], the pIC50 was over 8.00.

For the compound `COc1cccc(C(=O)Nc2ccc(Cc3ncc(CC(=O)O)c(N(C)C)n3)cc2)c1` [Example 2-14], the pIC50 is 7.00 to 8.00.

`CN(CC(=O)N1CCCC1)c1nc(Cc2ccc(NC(=O)c3ccc4ccccc4c3)cc2)ncc1CC(=O)O` [Example 2-3]: the pIC50 was over 8.00.

For `Cc1nc(Cc2ccc(NC(=O)/C=C/c3ccccc3)cc2)nc(N(C)C)c1CC(=O)O` [Example 8-5], the pIC50 is over 8.00.

`CN(C)c1nc(Cc2ccc(N(C)C(=O)c3ccc(Cl)cc3)cc2)nc(Cl)c1CC(=O)O` [Example 6-1, [4-Chloro-2-{4-[(4-chlorobenzoyl)(methyl)amino]benzyl}-6-(dimethylamino)pyrimidin-5-yl]acetic acid]: the pIC50 is 6.30 to 7.00.

Regarding `CN(CC(=O)NC1CCCC1)c1nc(Cc2ccc(NC(=O)/C=C/c3ccccc3)cc2)ncc1CC(=O)O` [Example 2-5], the pIC50 was over 8.00.

As to `COc1nc(Cc2ccc(NC(=O)c3ccc4ccccc4c3)cc2)nc(Cl)c1CC(=O)O` [Example 3-9], the pIC50 was over 8.00.

As for `CN(CC(=O)NC1CCCC1)c1nc(Cc2ccc(NC(=O)NCCc3ccccc3)cc2)nc(Cl)c1CC(=O)O` [Example 4-3], the pIC50 is 7.00 to 8.00.

Turning to `Cc1nc(Cc2ccc(NC(=O)c3ccc4ccccc4c3)cc2)nc(N(C)C)c1CC(=O)O` [Example 8-3], the pIC50 was over 8.00.

`CN(CC(=O)NC1CCCC1)c1nc(Cc2ccc(NC/C=C/c3ccccc3)cc2)nc(Cl)c1CC(=O)O` [Example 5-4]: the pIC50 was 6.30 to 7.00.

As to `CN(C)c1nc(Cc2ccc(NC(=O)c3ccc(Cl)c(Cl)c3)cc2)nc(N(C)C)c1CC(=O)O` [Example 7-6], the pIC50 was over 8.00.

Take `CN(C)c1nc(Cc2ccc(NC(=O)c3ccc4ccccc4c3)cc2)nc(N2CCOCC2)c1CC(=O)O` [Example 7-1, {4-(Dimethylamino)-6-morpholin-4-yl-2-[4-(2-naphthoylamino)benzyl]pyrimidin-5-yl}acetic acid]: the pIC50 was 7.00 to 8.00.

`CN(C)c1nc(Cc2ccc(NC(=O)c3ccc(F)cc3)cc2)ncc1CC(=O)O` [Example 2-20]: the pIC50 is 7.00 to 8.00.

As for `O=C(O)Cc1c(Cl)nc(Cc2ccc(NC(=O)c3ccc4ccccc4c3)cc2)nc1N1CCC(O)C1` (centres unmarked) [Example 3-13], the pIC50 was over 8.00.

On to `CCN(C)c1nc(Cc2ccc(NC(=O)c3ccc4ccccc4c3)cc2)nc(Cl)c1CC(=O)O` [Example 3-12], for which the pIC50 is over 8.00.

With `O=C(O)Cc1c(Cl)nc(Cc2ccc(NC(=O)c3ccc4ccccc4c3)cc2)nc1N1CCCCC1` [Example 3-7], the pIC50 is over 8.00.

In the case of `CN(C)c1nc(Cc2ccc(NC(=O)c3ccc4ccccc4c3)cc2)nc(N2CCCCC2)c1CC(=O)O` [Example 7-5], the pIC50 was 7.00 to 8.00.

With `CCCCCCCNc1ccc(Cc2nc(Cl)c(CC(=O)O)c(N(C)CC(=O)NC3CCCC3)n2)cc1` [Example 5-5], the pIC50 is under 6.30.

For `O=C(O)Cc1c(Cl)nc(Cc2ccc(NC(=O)c3ccc4ccccc4c3)cc2)nc1N1CCC[C@H]1C(=O)O` [Example 3-14], the pIC50 is 7.00 to 8.00.

On to `Cc1nc(Cc2ccc(NC(=O)c3ccc(Cl)c(Cl)c3)cc2)nc(N(C)C)c1CC(=O)O` [Example 8-4], for which the pIC50 is over 8.00.

Turning to `COc1ccc(C(=O)Nc2ccc(Cc3nc(Cl)c(CC(=O)O)c(N4CCCC4)n3)cc2)cc1Cl` [Example 3-16], the pIC50 is over 8.00.

Take `CC(c1ccc(NC(=O)c2ccc3ccccc3c2)cc1)c1ncc(CC(=O)O)c(N(C)C)n1` (centres unmarked) [Example 2-18]: the pIC50 was over 8.00.

On to `CN(C)c1nc(Cc2ccc(NC(=O)c3ccc4ccccc4c3)cc2)nc(Cl)c1CC#N` [Example 12, N-(4-{[4-Chloro-5-(cyanomethyl)-6-(dimethylamino)pyrimidin-2-yl]methyl}phenyl)-2-naphthamide], for which the pIC50 is 6.30 to 7.00.

Regarding `CC(C)N(C)c1nc(Cc2ccc(NC(=O)c3ccc4ccccc4c3)cc2)nc(Cl)c1CC(=O)O` [Example 3-4], the pIC50 is over 8.00.

With `CN(CC(=O)NC1CCCC1)c1nc(Cc2ccc(NC(=O)c3ccccc3)cc2)ncc1CC(=O)O` [Example 2-4], the pIC50 was 7.00 to 8.00.

For the compound `CN(Cc1ccccc1)C(=O)Nc1ccc(Cc2ncc(CC(=O)O)c(N(C)C)n2)cc1` [Example 4-6], the pIC50 is 6.30 to 7.00.

Regarding `CCN(CC)c1nc(Cc2ccc(NC(=O)c3ccc4ccccc4c3)cc2)nc(Cl)c1CC(=O)O` [Example 3-11], the pIC50 was 7.00 to 8.00.

Turning to `CN(C)c1nc(Cc2ccc(NC(=O)c3ccc4ccccc4c3)cc2)nc(N(C)C)c1CC(=O)O` [Example 7-3], the pIC50 was 7.00 to 8.00.

Regarding `CN(C)c1nc(Cc2ccc(NC(=O)c3ccc(Cl)cc3)cc2)ncc1CC(=O)O` [Example 2-6], the pIC50 was over 8.00.

On to `O=C(O)Cc1c(Cl)nc(Cc2ccc(NC(=O)c3ccc4ccccc4c3)cc2)nc1N1CCCC1` [Example 3-1, {4-Chloro-2-[4-(2-naphthoylamino)benzyl]-6-pyrrolidin-1-ylpyrimidin-5-yl}acetic acid], for which the pIC50 was over 8.00.

In the case of `CN(C)c1nc(Cc2ccc(N(C)C(=O)c3ccc4ccccc4n3)cc2)nc(Cl)c1CC(=O)O` [Example 6-3], the pIC50 is under 6.30.

For the compound `CN(c1nc(Cc2ccc(NC(=O)c3ccc4ccccc4c3)cc2)nc(Cl)c1CC(=O)O)C1CCCCC1` [Example 3-3], the pIC50 was over 8.00.

For `CN(C)c1nc(Cc2ccc(N(C)C(=O)/C=C/c3ccccc3)cc2)nc(Cl)c1CC(=O)O` [Example 6-2], the pIC50 was under 6.30.

In the case of `CN(C)c1nc(Cc2ccc(NC(=O)c3ccc4cc[nH]c4c3)cc2)nc(Cl)c1CC(=O)O` [Example 3-8], the pIC50 was over 8.00.

On to `CN(C)c1nc(Cc2ccc(NC(=O)c3ccc(OC(F)(F)F)cc3)cc2)ncc1CC(=O)O` [Example 2-19], for which the pIC50 was over 8.00.

With `CN(CC(=O)O)c1nc(Cc2ccc(NC(=O)c3ccc4ccccc4c3)cc2)nc(Cl)c1CC(=O)O` [Example 3-2], the pIC50 was 7.00 to 8.00.

As for `CN(C)c1nc(Cc2ccc(NC(=O)NCc3ccccc3)cc2)ncc1CC(=O)O` [Example 4-5], the pIC50 was 7.00 to 8.00.

As for `CN(C)c1nc(Cc2ccc(NC(=O)c3ccc4ccccc4c3)cc2)nc(N2CCCC2)c1CC(=O)O` [Example 7-4], the pIC50 is 7.00 to 8.00.
